The values below come from patent US20250205168A1, “METHOD FOR PRODUCING NUCLEIC ACID-ENCAPSULATED LIPID NANOPARTICLES, METHOD FOR PRODUCING PHARMACEUTICAL COMPOSITION CONTAINING SAID LIPID NANOPARTICLES, AND METHOD FOR INTRODUCING NUCLEIC ACID INTO CELL OR TARGET CELL” (NOF Corporation, priority 2022, published 2025).

“Also recorded” adds a separate entry of the source.

The nature of data set [1]: mRNA encapsulation rate (Ribogreen assay). The data set is classed as physicochemical. The note with it: 37° C. 5 min. As for the experimental part:
The particle size, polydispersity index (PdI), and mRNA encapsulation rate of the obtained nucleic acid-encapsulated nanoparticles were analyzed. The particle size and PdI were measured by the dynamic light scattering method using a Zetasizer (registered trademark). The mRNA encapsulation rate was measured by the Ribogreen (registered trademark) assay. […]
The particle size, polydispersity index (PdI), and mRNA encapsulation rate of the obtained nucleic acid-encapsulated nanoparticles were analyzed. The particle size and PdI were measured by the dynamic light scattering method using a Zetasizer (registered trademark). The mRNA encapsulation rate was measured by the Ribogreen (registered trademark) assay. As a result, mRNA was encapsulated at any incubation temperature, and no difference in the encapsulation rate was observed. The particle size of the obtained nucleic acid-encapsulated nanoparticles tended to increase with increasing incubation temperature (see FIG. 24 and FIG. 25).
The particle size, polydispersity index (PdI), and mRNA encapsulation rate of the obtained nucleic acid-encapsulated nanoparticles were analyzed. The particle size and PdI were measured by the dynamic light scattering method using a Zetasizer (registered trademark). The mRNA encapsulation rate was measured by the Ribogreen (registered trademark) assay. As a result, the encapsulation rate of mRNA tended to decrease with increasing salt concentration of the buffer (see FIG. 34 and FIG. 35).
The particle size, polydispersity index (PdI), and mRNA encapsulation rate of the obtained nucleic acid-encapsulated nanoparticles were analyzed. The particle size and PdI were measured by the dynamic light scattering method using a Zetasizer (registered trademark). The mRNA encapsulation rate was measured by the Ribogreen (registered trademark) assay. As a result, mRNA was encapsulated (see Table 5).
The particle size, polydispersity index (PdI), and mRNA encapsulation rate of the obtained nucleic acid-encapsulated nanoparticles or nucleic acid-encapsulated nanoparticles prepared by freeze-dry technique in Comparative Example 1 were analyzed. The particle size and PdI were measured by the dynamic light scattering method using a Zetasizer (registered trademark). The mRNA encapsulation rate was measured by the Ribogreen (registered trademark) assay. […] In addition, the particle size of the nucleic acid-encapsulated nanoparticles was smaller than that of nucleic acid-encapsulated nanoparticles produced by the freeze-dry technique (see FIG. 14 and FIG. 15).
The particle size, polydispersity index (PdI), and mRNA encapsulation rate of the obtained nucleic acid-encapsulated nanoparticles or nucleic acid-encapsulated nanoparticles prepared by freeze-dry technique in Comparative Example 2, Comparative Example 3 were analyzed. The particle size and PdI were measured by the dynamic light scattering method using a Zetasizer (registered trademark). The mRNA encapsulation rate was measured by the Ribogreen (registered trademark) assay. […] In addition, the particle size of the nucleic acid-encapsulated nanoparticles was smaller than that of nucleic acid-encapsulated nanoparticles produced by the freeze-dry technique (see FIG. 36 and FIG. 37). In FIG. 36, FIG. 37 and FIG. 38, Comparative Example 2 in which the total flow rate during preparation of lipid nanoparticles was 1 mL/min, is shown as “freeze-dry (FR=1)”, and Comparative Example 3, in which the total flow rate was 16 mL/min, is shown as “freeze-dry (FR=16)”.
The particle size, polydispersity index (PdI), and mRNA encapsulation rate of the obtained nucleic acid-encapsulated nanoparticles (liquid) or nucleic acid-encapsulated nanoparticles produced using a microfluidic channel (MF) (LNP prepared with the same lipid composition and using MES buffer (20 mM, pH 6.5) containing nucleic acid and an ethanol solution of lipid) were analyzed. […]

Data set [2] can be described thus: Zeta potential by electrophoretic light scattering (Zetasizer). The data set is classed as physicochemical. The note with it: Example 10; particles produced using SS-OP at pH and pH 5.5 compared to pH 6, pH 6.5 and pH 7; measured in MES pH 5-7. As for the experimental part: Among the obtained nucleic acid-encapsulated nanoparticles, the particles produced using SS-OP were analyzed for Zeta potential. Zeta potential was measured by the electrophoretic light scattering method using Zetasizer (registered trademark) and using MES buffer (pH 5, pH 5.5, pH 6, pH 6.5 or pH 7).

In another data set the test system is HeLa cells. Briefly: nucleic acid introduction into HeLa cells, luciferase luminescence (Steady-Glo, GloMax 20/20 luminometer). It counts as cell-based. The note with it: Example 10, particles produced using SS-OP, after 13 hr. As for the experimental part:
The nucleic acid-encapsulated nanoparticles obtained were applied to HeLa cells to evaluate the nucleic acid introduction efficiency. HeLa cells were seeded in D-MEM medium (high glucose) (containing L-glutamine and phenol red) (containing 10% FBS and 1% penicillin-streptomycin solution added) at 5×10^3 cells/100 μL in a 96-well flat-bottom transparent plate. The obtained nucleic acid-encapsulated particles were added such that the nucleic acid concentration in the medium was 0.02 μg/4 μL. After 16 hr, the amount of luciferase protein introduced was evaluated using the amount of luminescence. 100 μL of Steady-Glo (registered trademark) was added, and the cells were lysed by shaking for 5 min, and the amount of luminescence was quantified using a GloMax 20/20 luminometer. As a result, the introduction of luciferase protein was confirmed at any incubation temperatures, and no difference in in vitro activity was observed.
The nucleic acid-encapsulated nanoparticles obtained were applied to HeLa cells and the nucleic acid introduction efficiency was evaluated. […] After 13 hr, the amount of luciferase protein introduced was evaluated using the amount of luminescence. 100. μL of Steady-Glo (registered trademark) was added, and the cells were lysed by shaking for 5 min, and the amount of luminescence was quantified using a GloMax 20/20 luminometer. […]

Setting [3] is: Example 4, LNP in MES pH 5, 5.5, 6, 6.5 or 7, mRNA 1.5 μg/135 μL.
[4] abbreviates: Example 10, LNP and mRNA (3 μg/135 μL) in MES pH 5, 5.5, 6, 6.5 or 7.

Take `CCCCCCCC/C=C\CCCCCCCC(=O)Oc1ccc(CC(=O)OCCC2CCN(CCSSCCN3CCC(CCOC(=O)Cc4ccc(OC(=O)CCCCCCC/C=C\CCCCCCCC)cc4)CC3)CC2)cc1` [SS-OP]: the “encapsulation rate at higher pH, in words” value (from here on “encapsulation rate”) was “decreased at pH 6.5 and pH 7” in data set [1] (setting [3]); “decreased at pH 6.5 and pH 7” in data set [1] (setting [4]). In addition, in data set [2], the “Zeta potential, in words” value is given as “higher values in a low pH environment”. Further, in the data set on HeLa cells, the “in vitro activity (luciferase luminescence) by pH of production, in words” value was “highest in vitro activity was observed at pH 6; also recorded: slightly decreasing at pH 6.5; also recorded: low activity was observed at pH 5, pH 5.5, and pH 7”.

For the molecule `CCCCCCCC/C=C\CCCCCCCC(=O)OCC(CN(C)C)OC(=O)CCCCCCC/C=C\CCCCCCCC` (stereo not shown) [DODAP, 1,2-dioleoyloxy-3-dimethylaminopropane, reference compound], the “encapsulation rate” value in data set [1] (setting [3]) was “decreased at pH 6, pH 6.5, and pH 7”; in data set [1] (setting [4]), “decreased at pH 6.5 and pH 7”.

Turning to `CCCCCCCC/C=C\CCCCCCCC(=O)OCCC1CCN(CCSCSCCN2CCC(CCOC(=O)CCCCCCC/C=C\CCCCCCCC)CC2)CC1` [SS-OC], the “encapsulation rate” value in data set [1] (setting [3]) is “decreased at pH 6, pH 6.5, and pH 7”; in data set [1] (setting [4]), “decreased at pH 6.5 and pH 7”.

In the case of `CCCCCC=CCC=CCCCCCCCCC(CCCCCCCCC=CCC=CCCCCC)OC(=O)CCCN(C)C` (stereo not shown) [MC3, heptatriaconta-6,9,28,31-tetraen-19-yl-4-(dimethylamino)butanoate, reference compound], the “encapsulation rate” value was “decreased at pH 6.5 and pH 7” in data set [1] (setting [3]); “decreased at pH 6.5 and pH 7” in data set [1] (setting [4]).
